What was measured:
S1PR2 = molecular target: T1, S1PR2 (Homo sapiens, UniProt O95136); assay: GTP-γS binding assay ([35S]GTPγS, S1P at EC80, S1PR2 membranes); format: biochemical; settings: membranes from stable cell line over expressing S1PR2, read-out: S1PR2 EC
T1 construct: expressed in transfected cells
Experimental: The following assay can be used for determination of S1PR2 activation. The [^35S] GTPγS assay measures the level of G protein activation following agonist occupation of a GPCR, by determining the binding of the non-hydrolysable analog [^35S] GTPγS to Gα subunits.
The assay is performed in a 96 well plate where the following reagents are added. First 50 μL compound is added into the assay plate, followed by addition of 20 μL S1P at EC80 concentration (concentration which gives 80% of the activity of S1PR2). Then, 30 μL of a mixture consisting of membranes-GTPγS-SpA beads is added [mixture consists of 2.5 μg/well membranes derived from stable cell line over expressing S1PR2 (membranes are pre-incubated with 1 μM GDP for 15 min at 4° C.), 0.1 nM [35S]GTPγS (Perkin Elmer, NEG030) and 0.5 mg/well PVT-WGA SpA beads (Perkin Elmer, RPNQ0001)]. All components are diluted in assay buffer containing 20 mM Tris pH 7.5; 10 mM MgCl2; 100 mM NaCl; 0.1% BSA FAF; 50 ug/ml saponin. After an incubation for 4 h at room temperature, plates are centrifuged at 2000 rpm during 20 min. Plates are read on a Topcount reader (Perkin Elmer) immediately after centrifugation (readout time, 1 min/well).

[1] = molecular target: T2, human GPCR sphingosine 1-phosphate receptor 1 (S1PR1) (Homo sapiens, UniProt P21453); assay: S1PR1 selectivity assay (Ca2+ flux, antagonist); format: cell-based; settings: S1P1 antagonist EC50, CHO cells overexpressing human S1PR1 and Gq protein
T2 construct: host or cells: CHO
T2 sequence (P21453 whole entry): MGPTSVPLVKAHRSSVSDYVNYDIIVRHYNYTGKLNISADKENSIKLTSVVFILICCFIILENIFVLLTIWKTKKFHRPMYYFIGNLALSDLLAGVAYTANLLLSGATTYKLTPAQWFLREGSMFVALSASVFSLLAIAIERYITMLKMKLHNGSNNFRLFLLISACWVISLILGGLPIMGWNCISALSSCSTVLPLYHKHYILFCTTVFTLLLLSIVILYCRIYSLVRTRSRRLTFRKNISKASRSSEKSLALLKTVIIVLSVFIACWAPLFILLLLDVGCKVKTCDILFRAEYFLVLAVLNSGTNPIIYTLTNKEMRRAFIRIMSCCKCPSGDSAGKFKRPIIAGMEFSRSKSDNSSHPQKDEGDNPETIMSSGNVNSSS
Experimental: (§1) After readout of the agonist activity, the plates are incubated for 15 min at 37° C. and 5% CO2. Then, cells are stimulated with 10 μL Sphingosine-1-Phosphate (S1P) (Avanti Polar lipids-860492P) at its EC80 concentration. Intracellular Ca^2+ changes are immediately measured by reading fluorescence during 3 min (FDSS/μCELL reader). The ratio of the maximal fluorescence over the background fluorescence before compound injection is used to determine compound response.
(§2) For EC50 determination, a 10 point dilution series of compounds starting from 23.3 μM and 20 μM highest final concentration for agonist and antagonist respectively, ⅓ dilution was performed.
(§3) The obtained ratio's for agonist and antagonist readout were normalized versus vehicle and EC100 of S1P as controls for agonist mode and versus vehicle and EC80 of S1P for antagonist mode. From these normalized data EC50 of the compounds are derived.
(§4) To evaluate the selectivity of the compounds for S1PR2 over S1PR1 and S1PR5, a similar assay set up as described above for the S1PR2 calcium flux assays was performed: CHO cells stably overexpressing human GPCR sphingosine 1-phosphate receptor 1 and Gq protein (Euroscreen, FAST-0197A) or overexpressing human GPCR sphingosine 1-phosphate receptor 5 and Gq protein were used (Perkin Elmer, ES-593-A). In case of the S1PR5 assay triggering was done with an S1PR5 specific agonist instead of with S1P (Hobson et al., 2015).

[2] = molecular target: T3, human GPCR sphingosine 1-phosphate receptor 2 (S1PR2) (Homo sapiens, UniProt O95136); assay: S1P2 antagonist assay (Ca2+ flux, S1P at EC80); format: cell-based; settings: CHO-S1PR2 cells, highest concentration 20 μM
T3 construct: host or cells: CHO
T3 sequence (O95136 whole entry): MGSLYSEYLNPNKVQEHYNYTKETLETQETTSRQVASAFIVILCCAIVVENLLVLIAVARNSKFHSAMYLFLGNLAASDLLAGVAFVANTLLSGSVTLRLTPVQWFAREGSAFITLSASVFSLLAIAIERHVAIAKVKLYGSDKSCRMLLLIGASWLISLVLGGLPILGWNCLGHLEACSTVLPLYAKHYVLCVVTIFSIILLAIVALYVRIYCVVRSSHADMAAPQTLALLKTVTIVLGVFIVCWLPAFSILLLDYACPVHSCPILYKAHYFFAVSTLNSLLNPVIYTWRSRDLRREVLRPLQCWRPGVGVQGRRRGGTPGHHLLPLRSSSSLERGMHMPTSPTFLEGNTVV
Experimental: Triggering of S1PR2 by administration of Sphingosine-1-phosphate leads to a transient increase in intracellular Ca^2+. The Ca^2+ flux assays are measuring the release of Ca^2+ intracellularly by use of a Ca^2+ sensitive fluorescent dye. The assay is firstly run in agonist mode (incubation of compounds alone) to ensure that the Ca^2+ released measured is not caused by the test compound having an agonistic effect. Then the assay is continued in antagonist mode (Sphingosine-1-Phosphate added to incubated medium containing the test compounds).
CHO cells stably overexpressing human GPCR sphingosine 1-phosphate receptor 2 (CHO—S1PR2 Perkin Elmer; ES-594-A) are seeded from a frozen stock in 384 wells sterile microplates (50 μL; 7,500 cells/well) and are incubated overnight at 37° C. and 5% CO2. The next day cells are washed twice with starvation medium (F-12 Ham's medium containing 0.1% BSA (Fatty acid free: FAF)) and left in […] starvation medium for 1 h at 37° C., 5% CO2. After this starvation cells are incubated with […] buffer containing the Ca^2+-sensitive fluorescent dye (0.5 mg Fluo8+125 mg Allura Red in 100 ml of 1% DMSO, in HBSS+20 mM Hepes+5 mM probenecid). The cells are incubated for an additional 1 hour after which 10 μL compounds, diluted in HBSS buffer with 20 mM Hepes and 0.1% BSA (FAF), are added to the cells and intracellular Ca^2+ changes are immediately measured by reading fluorescence during 3 min (FDSS/μCELL reader). The ratio of the maximal fluorescence over the background fluorescence before compound injection is used to determine compound response.
as §1, §2, §3

[3] = molecular target: T4, human GPCR sphingosine 1-phosphate receptor 5 (S1PR5) (Homo sapiens, UniProt Q9H228); assay: S1PR5 selectivity assay (Ca2+ flux, antagonist, S1PR5 specific agonist trigger); format: cell-based; settings: S1P5 antagonist EC50, CHO cells overexpressing human S1PR5 and Gq protein
T4 construct: host or cells: CHO
T4 sequence (Q9H228 whole entry): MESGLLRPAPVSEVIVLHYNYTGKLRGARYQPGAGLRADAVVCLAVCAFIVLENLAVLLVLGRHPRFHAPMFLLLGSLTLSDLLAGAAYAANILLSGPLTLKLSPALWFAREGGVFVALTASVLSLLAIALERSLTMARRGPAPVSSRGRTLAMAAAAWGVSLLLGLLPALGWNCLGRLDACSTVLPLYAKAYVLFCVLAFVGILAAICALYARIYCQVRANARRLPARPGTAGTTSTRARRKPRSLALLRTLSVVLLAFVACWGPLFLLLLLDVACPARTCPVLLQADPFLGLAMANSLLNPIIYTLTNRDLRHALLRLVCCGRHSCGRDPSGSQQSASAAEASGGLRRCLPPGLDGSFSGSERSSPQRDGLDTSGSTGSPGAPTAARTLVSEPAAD
Experimental: as §1, §2, §3, §4

T1 sequence (O95136 whole entry): as the sequence (O95136 whole entry) above

Compound	EC50 (S1PR2) [µM]	EC50 [1] [µM]	EC50 [2] [µM]	EC50 [3] [µM]
Cc1cc(CNC(=O)Nc2cnc(OCC(F)F)c(Cl)c2)nnc1-c1cn(C)nc1C(F)(F)F [Compound 9, 1-[5-chloro-6-(2,2-difluoroethoxy)-3-pyridyl]-3-[[5-methyl-6-[1-methyl-3-(trifluoromethyl)pyrazol-4-yl]pyridazin-3-yl]methyl]urea]	0.532	≥ 19.8	0.0237	≥ 19.8
CCOc1ncc(NC(=O)NCc2cc(C)c(-c3cn(C)nc3C(F)(F)F)nn2)cc1C(F)(F)F [Compound 10, 1-[6-ethoxy-5(trifluoromethyl)-3-pyridyl]-3-[[5-methyl-6-[1-methyl-3-(trifluoromethyl)pyrazol-4-yl]pyridazin-3-yl]methyl]urea]	0.281	≥ 19.8	0.015	≥ 19.8
CCOc1cc(NC(=O)NCc2cc(C)c(-c3cn(COC)nc3C(F)(F)F)nn2)cc(Cl)n1 [Compound 15]	0.0916	6.61	0.0092	≥ 19.8
Cc1cc(CNC(=O)Nc2cc(OC3CCOC3)nc(C(F)(F)F)c2)nnc1-c1cn(C)nc1C(F)(F)F (centres unmarked) [Compound 26, 1-[[5-methyl-6-[1-methyl-3-(trifluoromethyl)pyrazol-4-yl]pyridazin-3-yl]methyl]-3-[2-tetrahydrofuran-3-yloxy-6-(trifluoromethyl)-4-pyridyl]urea]	0.77	≥ 19.8	0.11	≥ 19.8
Cc1cc(CNC(=O)Nc2cc(C#N)nc(OCC(F)F)c2)nnc1-c1cn(C)nc1C(F)(F)F [Compound 28, 1-[2-cyano-6-(2,2-difluoroethoxy)-4-pyridyl]-3-[[5-methyl-6-[1-methyl-3-(trifluoromethyl)pyrazol-4-yl]pyridazin-3-yl]methyl]urea]	0.0897	6.61	0.016	6.61
Cc1cc(CNC(=O)Nc2cc(OCC3COCCO3)nc(C(F)(F)F)c2)nnc1-c1cn(C)nc1C(F)(F)F (centres unmarked) [Compound 37, 1-[2-(1,4-dioxan-2-ylmethoxy)-6-(trifluoromethyl)4-pyridyl]-3-[[5-methyl-6-[1-methyl-3-(trifluoromethyl)pyrazol-4-yl]pyridazin-3-yl]methyl]urea]	9.58	≥ 19.8	5.43	≥ 19.8
Cc1cc(CNC(=O)Nc2ccnc(C(F)(F)F)c2)nnc1-c1cn(C)nc1C(F)(F)F [Compound 43, 1-[[5-methyl-6-[1-methyl-3-(trifluoromethyl)pyrazol-4-yl]pyridazin-3-yl]methyl]-3-[2-(trifluoromethyl)-4-pyridyl]urea]	4.65	≥ 19.8	6.03	≥ 19.8

More lines, in order of falling EC50 (S1PR2), values ahead:

EC50 (S1PR2) [µM]	EC50 [1] [µM]	EC50 [2] [µM]	EC50 [3] [µM]	Compound
4.15	≥ 19.8	4.5	≥ 19.8	Cc1cc(CNC(=O)Nc2ccnc(Cl)c2)nnc1-c1cn(C)nc1C(F)(F)F [Compound 44, 1-(2-chloro-4-pyridyl)-3-[[5-methyl-6-[1-methyl-3-(trifluoromethyl)pyrazol-4-yl]pyridazin-3-yl]methyl]urea]
2.03	≥ 19.8	0.792	≥ 19.8	COCCOc1cc(NC(=O)NCc2cc(C)c(-c3cn(C)nc3C(F)(F)F)nn2)cc(C(F)(F)F)n1 [Compound 25, 1-[2-(2-methoxyethoxy)-6-(trifluoromethyl)-4-pyridyl]-3-[[5-methyl-6-[1-methyl-3-(trifluoromethyl)pyrazol-4-yl]pyridazin-3-yl]methyl]urea]
0.641	≥ 19.8	0.414	≥ 19.8	COCCOc1cc(NC(=O)NCc2cc(C)c(-c3cn(C)nc3C(F)(F)F)nn2)cc(Cl)n1 [Compound 27, 1-[2-chloro-6-(2-methoxyethoxy)-4-pyridyl]-3-[[5-methyl-6-[1-methyl-3-(trifluoromethyl)pyrazol-4-yl]pyridazin-3-yl]methyl]urea]
0.408	2.02	0.0658	6.61	Cc1cc(CNC(=O)Nc2cc(OCC(C)(F)F)nc(C(F)(F)F)c2)nnc1-c1cn(C)nc1C(F)(F)F [Compound 34, 1-[2-(2,2-difluoropropoxy)-6-(trifluoromethyl)-4-pyridyl]-3-[[5-methyl-6-[1-methyl-3-(trifluoromethyl)pyrazol-4-yl]pyridazin-3-yl]methyl]urea]
0.223	≥ 19.8	0.0696	≥ 19.8	CCOc1nc(C#N)cc(NC(=O)NCc2cc(C)c(-c3cn(C)nc3C(F)(F)F)nn2)c1C1CC1 [Compound 58, 1-(6-cyano-3-cyclopropyl-2-ethoxy-4-pyridyl)-3-[[5-methyl-6-[1-methyl-3-(trifluoromethyl)pyrazol-4-yl]pyridazin-3-yl]methyl]urea]
0.086	6.61	0.0173	≥ 19.8	CCOc1cc(NC(=O)NCc2cc(C)c(-c3cn(C)nc3C(F)(F)F)nn2)cc(C2CC2)n1 [Compound 22, 1-(2-cyclopropyl-6-ethoxy-4-pyridyl)-3-[[5-methyl-6-[1-methyl-3-(trifluoromethyl)pyrazol-4-yl]pyridazin-3-yl]methyl]urea]
0.0745	≥ 19.8	0.0106	≥ 19.8	Cc1cc(CNC(=O)Nc2cnc(Cl)c(OCC(F)F)c2)nnc1-c1cn(C)nc1C(F)(F)F [Compound 23, 1-[6-chloro-5-(2,2-difluoroethoxy)-3-pyridyl]-3-[[5-methyl-6-[1-methyl-3-(trifluoromethyl)pyrazol-4-yl]pyridazin-3-yl]methyl]urea]
0.0538	≥ 19.8	0.0087	≥ 19.8	CCOc1cc(NC(=O)NCc2cc(C)c(-c3cn(C)nc3C(F)(F)F)nn2)cnc1Cl [Compound 24, 1-(6-chloro-5-ethoxy-3-pyridyl)-3-[[5-methyl-6-[1-methyl-3-(trifluoromethyl)pyrazol-4-yl]pyridazin-3-yl]methyl]urea]
0.0361	4.94	0.0086	6.61	Cc1cc(CNC(=O)Nc2cc(Cl)nc(OCC(F)F)c2)nnc1-c1cn(C)nc1C(F)(F)F [Compound 17, 1-[2-chloro-6-(2,2-difluoroethoxy)-4-pyridyl]-3-[[5-methyl-6-[1-methyl-3-(trifluoromethyl)pyrazol-4-yl]pyridazin-3-yl]methyl]urea]
0.0152	3.87	0.0088	2.1	CCOc1nc(Cl)cc(NC(=O)NCc2cc(C)c(-c3cn(C)nc3C(F)(F)F)nn2)c1C [Compound 20, 1-(6-chloro-2-ethoxy-3-methyl-4-pyridyl)-3-[[5-methyl-6-[1-methyl-3-(trifluoromethyl)pyrazol-4-yl]pyridazin-3-yl]methyl]urea]

— patent US20190388421A1, “NOVEL COMPOUNDS AND PHARMACEUTICAL COMPOSITIONS THEREOF FOR THE TREATMENT OF FIBROSIS” (Galapagos NV, priority 2016, published 2019)
